In US20220310200A1, “METHODS FOR IDENTIFYING AND USING DISEASE-ASSOCIATED ANTIGENS” (KIROMIC BIOPHARMA, INC., priority 2019, published 2022):
No end group written: not given here.

System: Autologous DCs pulsed with the IsoMSLN peptide
Assay: DC-T-cell co-culture immunogenicity, 4-hour Calcein-AM-release cytotoxicity assay
Type: cell-based
Conditions: E/T ratio 10:1 and 5:1; peripheral blood mononuclear cells of a healthy individual; control unrelated HIV peptide; FIG. 5
Procedure: The peptide unique to the isoform variant (i.e., PQAPRRPL (SEQ ID NO: 19)) was then tested for immunogenicity using a dendritic cell (DC)- T-cell co-culture system as previously described (Chiriva-Internati et al. Blood. 2002 Aug. 1;100(3):961-5). A standard 4-hour Calcein-AM-release assay was performed to determine the cytotoxic activity of the IsoMSLN peptide stimulated T cells. Autologous DCs pulsed with the IsoMSLN peptide or with an unrelated peptide (derived from HIV), were used as target cells (at an effector-target cell [E/T] ratio of 10:1 and 5:1).

In the case of PQAPRRPL [PQAPRRPL], the “immunogenicity (cytotoxic activity of peptide stimulated T cells, percent specific killing)” value is reported as “immunogenic”.
